Measured values published in US20230279341A1, “NOVEL FAECALIBACTERIUM PRAUSNITZII STRAIN EB-FPDK9 AND USE THEREOF” (ENTEROBIOME INC., priority 2020, published 2023).
In brackets after ≈: the same amount, converted by molar mass.

Legend:
Format in all cases: cell-based
[1] = tested on: Faecalibacterium prausnitzii DSM 17677^T; assay: MIC, liquid medium microdilution method (CLSI), standard strain
[2] = tested on: Faecalibacterium prausnitzii EB-FPDK9 strain; assay: MIC, liquid medium microdilution method (CLSI), EB-FPDK9 strain; settings: for Resistance or susceptibility of the EB-FPDK9 strain to the antimicrobial agent, in words: text summary of Table 4
[3] = tested on: Bacteroides thetiotaomicron ATCC 29741; assay: MIC, liquid medium microdilution method (CLSI), QC strain

## O=C(N[C@H](CO)[C@H](O)c1ccc([N+](=O)[O-])cc1)C(Cl)Cl [CHL, chloramphenicol]
[1]; CHL breakpoints
  Susceptibility class (S/I/R), DSM 17677^T: R (≥32)
[2]; CHL breakpoints
  Susceptibility class (S/I/R), EB-FPDK9: R (≥32)
[2]
  Resistance or susceptibility of the EB-FPDK9 strain to the antimicrobial agent, in words: resistance

## Piperacillin-tazobactam [PTZ]
[3]; Bacteroides thetiotaomicron ATCC 29741
  MIC, QC ATCC 29741: 8/4
[1]; F. prausnitzii DSM 17677^T
  MIC, test strain DSM 17677^T: 256/4
[1]; PTZ breakpoints
  Susceptibility class (S/I/R), DSM 17677^T: R (≥128/4)
[2]; F. prausnitzii EB-FPDK9
  MIC, test strain EB-FPDK9: 32/4
[2]; PTZ breakpoints
  Susceptibility class (S/I/R), EB-FPDK9: S (≤32/4)
[2]
  Resistance or susceptibility of the EB-FPDK9 strain to the antimicrobial agent, in words: susceptibility

## CO/N=C(\C(=O)N[C@@H]1C(=O)N2C(C(=O)O)=CCS[C@H]12)c1csc(N)n1 [CTZ, ceftizoxime]
[1]; CTZ breakpoints
  Susceptibility class (S/I/R), DSM 17677^T: I (64)
[2]; CTZ breakpoints
  Susceptibility class (S/I/R), EB-FPDK9: R (≥128)
[2]
  Resistance or susceptibility of the EB-FPDK9 strain to the antimicrobial agent, in words: resistance

## CCC[C@@H]1C[C@@H](C(=O)N[C@@H]([C@H]2O[C@H](SC)[C@H](O)[C@@H](O)[C@H]2O)[C@H](C)Cl)N(C)C1 [CLI, clindamycin]
[1]; CLI breakpoints
  Susceptibility class (S/I/R), DSM 17677^T: S (≤2)
[2]; CLI breakpoints
  Susceptibility class (S/I/R), EB-FPDK9: S (≤2)

## C[C@@H](O)[C@H]1C(=O)N2C(C(=O)O)=C(S[C@@H]3CN[C@H](C(=O)N(C)C)C3)[C@H](C)[C@H]12 [MEM, meropenem]
[3]; Bacteroides, ATCC29741, read-out: MIC, QC ATCC 29741
  MIC: 0.5 µg/mL (≈ 1.3 µM)
[1]; MEM breakpoints
  Susceptibility class (S/I/R), DSM 17677^T: R (≥16)
[2]; MEM breakpoints
  Susceptibility class (S/I/R), EB-FPDK9: R (≥16)
[2]
  Resistance or susceptibility of the EB-FPDK9 strain to the antimicrobial agent, in words: resistance

## COc1c(N2C[C@@H]3CCCN[C@@H]3C2)c(F)cc2c(=O)c(C(=O)O)cn(C3CC3)c12 [MXF, moxifloxacin]
[1]; MXF breakpoints
  Susceptibility class (S/I/R), DSM 17677^T: R (≥8)
[2]; MXF breakpoints
  Susceptibility class (S/I/R), EB-FPDK9: R (≥8)

## Cc1ncc([N+](=O)[O-])n1CCO [MTZ, metronidazole]
[1]; MTZ breakpoints
  Susceptibility class (S/I/R), DSM 17677^T: S (≤8)
[2]; MTZ breakpoints
  Susceptibility class (S/I/R), EB-FPDK9: S (≤8)
[2]
  Resistance or susceptibility of the EB-FPDK9 strain to the antimicrobial agent, in words: susceptibility
